Experiments:
[1] = system: WT F9 cells; test: Proliferation of F9 cells in monolayer culture (cell counting, [3H]thymidine incorporation, cell cycle FACS); assay type: cell-based, murine; details: 1 μM, 5 d
Description: Cells were plated in triplicate 3-cm culture wells (5×10^2 cells per well), and cell counting experiments were performed as previously described (Clifford, J., et al., EMBO J. 15:4142-4155 (1996)). [^3H]Thymidine incorporation assays were performed essentially as described (Clifford, J., et al., EMBO J. 15:4142-4155 (1996)), with the following modifications. […] The cell cycle profile of WT and mutant cells was determined as previously described (Clifford, J., et al. EMBO J. 15:4142-4155 (1996)).

[2] = system: RXRα−/− F9 cells; test: as above; assay type: cell-based, murine; details: 1 μM, 5 d
[3] = system: RXRα−/−/RARγ−/− F9 cells; test: as above; assay type: cell-based, murine; details: 1 μM
[4] = system: D2R promoter; test: D2R promoter CAT reporter assay in transfected COS-1 cells, reporter alone; assay type: cell-based, rat; details: C1 reporter-transfected COS-1 cells, no receptor vector; 10^−7 M
Source text: Expression Vectors. The C1 reporter construct was obtained by subcloning the HindIII fragment spanning the 5 ′ promoter region of the D2R gene (positions −495 to +273), in the reporter plasmid pBLCAT3 (Luckow, B. & Schütz, G., Nucleic Acids Res. 15:5490 (1987)). The C2 reporter plasmid was constructed by subcloning the SmaI-XhoI fragment (positions −76 to +273) in the same position. The C3 and C4 reporters were generated by cloning a 29 bp synthetic oligonucleotide corresponding, respectively, to the natural rat D2R RARE sequence and the mutated one into pBLCAT2 (Luckow, B. & Schütz, G., Nucleic Acids Res. 15:5490 (1987)). The polylinker in pBLCAT2 is located upstream of the herpes simplex virus 1 (HSV1) thymidine kinase (TK) promoter, from position −105 to +51. To measure transfection efficiency the plasmid pCH110 carrying the β-galactosidase gene (Pharmacia) was used. Mouse […], as well as mouse RXRα, β and γ expression vectors were derived from the parental pSG5 vector (Green, S., et al., Nucleic Acids Res. 16:369 (1988)).
COS-1 cells were used for transient transfection assays. Cells were grown in Dulbecco's modified Eagle's medium supplemented with 5% fetal calf serum.
Several hours before transfection, the medium was replaced with fresh medium containing 5% charcoal-treated FCS. […]

[5] = molecular target: T1, RARα (Mus musculus, UniProt P11416); test: D2R promoter CAT reporter assay in COS-1 cells cotransfected with RARα expression vector; assay type: cell-based; details: 0.1 μM
T1 construct: expressed in transfected cells; host or cells: COS-1
T1 sequence (P11416 1-462): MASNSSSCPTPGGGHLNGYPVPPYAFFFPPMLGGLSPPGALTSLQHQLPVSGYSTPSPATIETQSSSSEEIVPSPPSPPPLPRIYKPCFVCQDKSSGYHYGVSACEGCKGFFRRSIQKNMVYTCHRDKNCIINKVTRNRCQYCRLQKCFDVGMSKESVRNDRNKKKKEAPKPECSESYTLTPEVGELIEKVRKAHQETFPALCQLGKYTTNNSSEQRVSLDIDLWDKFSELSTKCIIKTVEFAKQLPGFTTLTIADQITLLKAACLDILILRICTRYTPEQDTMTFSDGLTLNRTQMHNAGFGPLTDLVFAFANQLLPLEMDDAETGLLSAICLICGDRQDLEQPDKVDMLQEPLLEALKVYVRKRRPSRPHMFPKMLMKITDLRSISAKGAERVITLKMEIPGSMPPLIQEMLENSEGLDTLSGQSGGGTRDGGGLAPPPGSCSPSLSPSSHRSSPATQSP
Source text: The C1 reporter construct was obtained by subcloning the HindIII fragment spanning the 5 ′ promoter region of the D2R gene (positions −495 to +273), in the reporter plasmid pBLCAT3 (Luckow, B. & Schütz, G., Nucleic Acids Res. 15:5490 (1987)). The C2 reporter plasmid was constructed by subcloning the SmaI-XhoI fragment (positions −76 to +273) in the same position. The C3 and C4 reporters were generated by cloning a 29 bp synthetic oligonucleotide corresponding, respectively, to the natural rat D2R RARE sequence and the mutated one into pBLCAT2 (Luckow, B. & Schütz, G., Nucleic Acids Res. 15:5490 (1987)). The polylinker in pBLCAT2 is located upstream of the herpes simplex virus 1 (HSV1) thymidine kinase (TK) promoter, from position −105 to +51. To measure transfection efficiency the plasmid pCH110 carrying the β-galactosidase gene (Pharmacia) was used. Mouse RARβ, β and γ, as well as mouse RXRα, β and γ expression vectors were derived from the parental pSG5 vector (Green, S., et al., Nucleic Acids Res. 16:369 (1988)).

Structure (SMILES): CC1=C(/C=C/C(C)=C/C=C/C(C)=C/C(=O)O)C(C)(C)CCC1 [tRA, all-trans retinoic acid]
- proportion of cells in the G0 and G1 phases (FACS) [1]: 71%
- proportion of cells in the G0 and G1 phases (FACS) [2]: 38%
- inhibition of [3H]thymidine incorporation ([3]; 4 d): no inhibition
- cell cycle profile (FACS) ([3]; 5 d): not significantly affected
- effect on number of cells (cell counting) ([3]; 6 d): did not reduce, but slightly increased
- changes in CAT activity [4]: no significant changes
- increase of CAT activity ([5]; C1 reporter + RARα expression vector): 16 fold
- increase of CAT activity ([5]; C2 reporter + RARα expression vector): 35 fold

From US6521814B1, “Use of ligands for treatment of diseases responsive to retinoids” (Institut National de la Santa et de la Recherche Medicale, priority 1997, dated 2003)
